The subject of assay [1] is S. aureus strains SHY97-4242 and RFT-5. Description: Bacterial growth in MHB. Format: cell-based, Staphylococcus aureus. The procedure:
The effect of LF or LFC at concentration sub-MICs alone or in combination with sub-MICs of antibiotics on bacterial growth rate of S. aureus, E. coli and K. pneumoniae was determined by monitoring bacterial cultures in MHB with the O.D.600 nm or by the count of colony forming unit per ml (cfu/ml). A volume of 2.5 ml of overnight cultures in MHB adjusted to 0.5-1 McFarland standard in saline were used to inoculate a final volume of 25 ml of fresh MHB containing the desired concentration of tested compounds. All flasks were then incubated at 37° C. with agitation (200 rpm) for 9 h. Aliquots were removed every hour to determine the culture turbidity using the spectrophotometer Philips PU 8800 (Pye Unican Ltd, Cambridge, UK). The combined antibiotic effect on bacterial growth was also determined using concentrations of LF in the presence of different concentrations of antibiotics. Briefly, a volume of 3 ml of fresh MHB containing desired concentration of drugs was adjusted to an optical density of 0.4 at 540 nm after an overnight culture. The culture was then incubated at 37° C with agitation (200 rpm). After incubation, aliquots were removed to determine the culture turbidity (OD540nm) or cfu/ml. To determine the influence of the level of iron on of the growth inhibition by the test compound, 5 μM of FeCl3 were added to the media.

The next assay has as its system S. aureus 22260. Description: MIC of penicillin G alone or with bovine LF, macrodilution. It counts as cell-based, Staphylococcus aureus. The settings on record: strain β-lactamase +B, read-out: MICs of penicillin G. The text has this:
(§1) Staphylococcus aureus strains ATCC 25923 and 6538 and Escherichia coli ATCC 25922 were obtained from the American Type Culture Collection. Eight bovine mastitis clinical isolates of S. aureus (SHY97-3906, -3923, -4085 -4242, -4320 and -4343, RFT-1 and RFT-5) and one isolate of E. coli SHY97-3923-2 and one isolate of Kiebsiella pneumoniae SHY99-723-1 were kindly provided by the Laboratoire Provincial de Pathologie Animale of St-Hyacinthe and of Rock-Forest (Quebec, Canada), respectively. Nine β-lactam antibiotics resistant S. aureus strains (PC-1, NCTC 9789, 2076, 22260, ST79/741, 3804, RN9, FAR8, and FAR10) were obtained from Vanderbilt University School of Medicine (Nashville, Tenn., USA). All the culture media were from Difco Laboratories (Detroit, Mich.). Bacteria from frozen stock at −80° C. were streaked onto tryptic soy agar plates suplemented with 5% of defibrinated sheep blood (Quelab, Montreal, QC, Canada) or Brain Heart infusion agar plates. Plates were then incubated for 16 to 24 h at 37° C. For most experiments, the strains were subcultured onto Mueller Hinton agar plates (MHA) or broth (MHB) for an additional 16-20 h. Aqueous solutions of the tested products were added by filtration through a sterile filter assembly (pore size 0.2 μm, Fisher, Ottawa, Ontario).
(§2) The MICs were determined by both macrodilution (1 ml/tube) and microdilution (100 μl/well) in sterile 96 well microtiter plates (International Nunc, Napierville, Ill.) techniques in three separate experiments according to the National Committee for Clinical Laboratory Standards (1992 and 1999) in three separate experiments. Serial 2-fold dilutions in MHB of LF, LFC, antibiotic or combination of LF or LFC with antibiotic were inoculated with an overnight culture at a final inoculum of 10^6 cfu/ml in MHB. Effect of LF combination with antibiotic on MICs were determined by adding 0.5 mg or 1 mg/ml of LF to each antibiotic dilution. The MIC was defined as the lowest concentration of drug (highest dilution) that caused a complete inhibition of bacterial growth after an incubation of 18 h. Effect of LF or LFC combination with antibiotic on MIC was also determined by checkerboard method using 96 well microtiter plates. Each antibiotic dilution (50 μl) was serially added to the wells in vertical rows starting from the top (lower dilution) to the bottom. Lactoferrin or LFC (50 μl) were added to 50 μl of each antibiotic dilution and serially diluted starting at the left (lower dilution) to the right. After inoculation, the final concentration of antibiotic from top to bottom were 32 to 8, 2 to 0.5, 0.5 to 0.125 μg/ml for penicillin, cefazolin and neomycin, respectively. From left to right, the concentration of LF or LFC were 25 to 0.0244 mg/ml or 256 to 0.5 μg/ml respectively in a final volume of 100 μl/well. The microplate's were incubated at 37° C. for 24 h. Bacterial growth was measured optically at 540 nm using Spectra Max 250 Microplate Spectrophotometer System of Molecular Device (Fisher Scientific, Ottawa, Canada). Tubes were incubated at 37° C. for 18 h and bacterial growth was measured by visual examination and optically at 540 nm using a spectrophotometer (Philips PU 8800; Pye Unican Ltd, Cambridge, UK). The fractional inhibitory concentration (FIC) was calculated as described by Eliopoulos and Moellering (1991).

A further assay concerns S. aureus 2076. Described as above. It counts as cell-based, Staphylococcus aureus. The settings on record: strain β-lactamase +A, read-out: MICs of penicillin G.
Text: as §1, §2

In the next assay the test system is S. aureus RN 9. Described as above. It counts as cell-based, Staphylococcus aureus. Conditions: strain β-lactamase +C; for MIC: Staphylococcus aureus.
Text: as §1, §2

In assay [2] the test system is β-lactamase activity of S. aureus SHY97-4320. Description: β-lactamase activity, nitrocefin assay, bovine LF/LFC. It counts as cell-based. Conditions: 8-μg/ml penicillin G alone. The procedure: The effects of sub-MICs of LF (1 mg/ml), LFC (32 and 64 μg/ml) alone or in combination with ampicillin (4μg/ml) or penicillin G (8 μg/ml) were evaluated on the β-lactamase activity of S. aureus strains SHY97-4320 and PC-1. The chromogenic cephalosporin nitrocefin (Becton Dickinson, Microbiology, Cockeysville, Md.) was used in a quantitative spectrophotometric assay. Bacterial cells were first exposed during 4 and 22-h to drugs in broth. The number of bacteria (cfu/ml) were determined and cells aliquots were centrifuged at each point in time. The pellets were suspended in 10 mM HEPES buffer (pH 7.4) to an OD415 nm of 1 for PC-1 and 2 for SHY97-4320. Nitrocefin (100 μM) was added to 100 μl of cells in a final volume of 1 ml. Hydrolysis was measured at 486 nm on spectrophotometer. β-lactamase activity was expressed as ΔO.D.486 nm/min and corrected for bacterial OD.

Molecules are shown by their SMILES. Like-named read-outs stand apart in the source and are kept apart here.

Regarding `CC1(C)S[C@@H]2[C@H](NC(=O)Cc3ccccc3)C(=O)N2[C@H]1C(=O)O` [penicillin G, Penicillin G], the “effect of addition of iron on growth inhibition” value in assay [1] (combination of penicillin to LF) is listed as “did not affect”. In addition, in assay [1] (in the presence of LF, P<0.01), the “growth inhibitory activity of penicillin” value was “enhanced”. In addition, the growth entry in assay [1] (penicillin G alone, P<0.001) is “reduced the growth”. In addition, the MIC with S. aureus 22260 (Staphylococcus aureus, 22260, +0.5 mg/ml LF) was determined as 16 µg/mL; with S. aureus 22260 (Staphylococcus aureus, 22260, +1 mg/ml LF) it was 16 µg/mL; in the assay with S. aureus 22260 (Staphylococcus aureus, 22260, Alone), 32 µg/mL; with S. aureus 2076 (Staphylococcus aureus, 2076, +0.5 mg/ml LF), 0.25 µg/mL; with S. aureus 2076 (Staphylococcus aureus, 2076, +1 mg/ml LF) it was 0.25 µg/mL; in the assay on S. aureus 2076 (Staphylococcus aureus, 2076, Alone), 0.5 µg/mL. In addition, the MIC in the assay on S. aureus RN 9 (RN9, read-out: MICs of penicillin G, Alone) came to 128 µg/mL; with S. aureus RN 9 (RN9, +0.5 mg/ml LF, read-out: MICs of penicillin G), 64 µg/mL. Further, in the assay on S. aureus RN 9 (+1 mg/ml LF), the “MICs of penicillin G” value was determined as 64 µg/mL. In assay [2], the β-lactamase activity entry is listed as “a large increase in β-lactamase activity”.

The values are drawn from patent publication US20030134779A1, “Method and composition for treatment and/or prevention of antibiotic-resistant microorganism infections” (priority 2002, published 2003).
